Among the test systems are A549; BT-549; CAKI-1; HCT-116; MDA-N; NCI-H460; NCI/ADR-RES; OVCAR-5; PC-3; SF-268; SK-MEL-5; SNB-19; SNB-75; UACC-257; HL-60; LOX IMVI; NCI-H226; SF-539; T47D.
Common to all, as to experiment: growth of human tumour cells (NCI), 48 h

Structures can show the parent of a compound that is named as a salt.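 48-hour exposure; five concentrations; linearly interpolated endpoints. At the GI50, growth is halved.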 Active and inactive are the calls of the source. No stated cut-off is given here; in the data, active = GI50 up to about 1.1 µM and inactive = higher. Some results are limits rather than exact numbers.

Regarding `C[C@@H]1CCC2C(C)(C)C(/C=C\C=O)C3(C)OC213` (stereo partly drawn), the GI50 in the assay on A549 is > 100 µM (inactive); with BT-549, 34.8 µM (inactive); in the assay on CAKI-1 it was > 100 µM (inactive); in the assay with HCT-116 it was 27.9 µM (inactive); with MDA-N, 26 µM (inactive); with NCI-H460, 42 µM (inactive). The GI50 is 30 µM (inactive) in the assay on NCI/ADR-RES; 24.5 µM (inactive) in the assay on OVCAR-5; 41.2 µM (inactive) in the assay with PC-3; 27.3 µM (inactive) in the assay on SF-268; 20.3 µM (inactive) with SK-MEL-5; 45.4 µM (inactive) in the assay on SNB-19. For the same molecule, the GI50 is 29.1 µM (inactive) in the assay with SNB-75 and 45.8 µM (inactive) in the assay with UACC-257.

With `CC(=O)c1c2c(cc3c1CC1(Cc4cc5c(cc4C1)CCCC5)C3)CCCC2`, the GI50 with A549 is > 100 µM (inactive); in the assay with HCT-116, > 100 µM (inactive); in the assay with HL-60, 7.85 µM (inactive); with LOX IMVI, 55.1 µM (inactive); in the assay on MDA-N it was 16.4 µM (inactive); in the assay with NCI-H226, 43.5 µM (inactive). The GI50 in the assay on NCI/ADR-RES is > 100 µM (inactive); with OVCAR-5, > 100 µM (inactive); in the assay on PC-3, 51.4 µM (inactive); with SF-539 it was > 100 µM (inactive); in the assay with SK-MEL-5, 10.3 µM (inactive); in the assay on SNB-75, < 0.01 µM (active). Moreover, the GI50 in the assay with T47D is > 100 µM (inactive); in the assay with UACC-257, 13 µM (inactive).

With `COc1ccc(C(OCC2OC(n3ccc(NC(=O)c4ccccc4)nc3=O)C(O)C2O)(c2ccccc2)c2ccccc2)cc1` (stereo not drawn), the GI50 was 4.06 µM (inactive) in the assay on A549; 2.93 µM (inactive) in the assay with CAKI-1; 1.75 µM (inactive) in the assay on HCT-116; 2.24 µM (inactive) in the assay with HL-60; 1.92 µM (inactive) in the assay on MDA-N; 2.61 µM (inactive) in the assay on NCI-H226. For the same molecule, the GI50 in the assay on NCI-H460 is 1.98 µM (inactive); in the assay with NCI/ADR-RES, 2.37 µM (inactive); with OVCAR-5, 2 µM (inactive); in the assay with PC-3 it was 3.09 µM (inactive); in the assay with SF-268 it was 5.18 µM (inactive); in the assay with SF-539, 2.34 µM (inactive). In addition, the GI50 was 1.91 µM (inactive) in the assay with SK-MEL-5; 3.44 µM (inactive) in the assay with SNB-19; 9.55 µM (inactive) in the assay with SNB-75; 3.54 µM (inactive) in the assay with T47D; 8.39 µM (inactive) in the assay on UACC-257.

In the case of `CCN1CCCC(Nc2cc(C)nc(NC(=N)Nc3ccc(Cl)c(Cl)c3)n2)C1` (stereo not drawn), the GI50 in the assay with A549 was 1.91 µM (inactive); with BT-549 it was 1.64 µM (inactive); in the assay with CAKI-1, 1.56 µM (inactive); in the assay with HCT-116, 1.26 µM (inactive); in the assay with HL-60 it was 0.216 µM (active); in the assay on MDA-N it was 1.67 µM (inactive). The GI50 is 1.26 µM (inactive) in the assay on NCI-H460; 2.78 µM (inactive) in the assay on NCI/ADR-RES; 2.74 µM (inactive) in the assay on OVCAR-5; 1.96 µM (inactive) with SF-268; 1.88 µM (inactive) in the assay on SF-539; 2.08 µM (inactive) in the assay on SK-MEL-5. For the same molecule, the results for the GI50 in the assay on SNB-19 and with SNB-75 were 2.14 µM (inactive) and 1.25 µM (inactive), respectively.

Turning to `COC1(OC)c2no[n+]([O-])c2C(OC)(OC)c2c1no[n+]2[O-]`, the GI50 in the assay with A549 was 23.6 µM (inactive); with CAKI-1, 37.8 µM (inactive); in the assay on HCT-116, 11.1 µM (inactive); with HL-60, 37.3 µM (inactive); with LOX IMVI, 14.9 µM (inactive); with MDA-N it was 19.6 µM (inactive). The GI50 in the assay on NCI-H226 was 24.5 µM (inactive); in the assay on NCI-H460, 26.7 µM (inactive); in the assay on NCI/ADR-RES, 26.6 µM (inactive); with OVCAR-5, 21.3 µM (inactive); in the assay on PC-3, 25.3 µM (inactive); with SF-268, 25.7 µM (inactive). The GI50 was 18.3 µM (inactive) in the assay with SF-539; 14.9 µM (inactive) in the assay on SK-MEL-5; 24.5 µM (inactive) in the assay on SNB-19; 18.3 µM (inactive) in the assay on SNB-75; 21.8 µM (inactive) in the assay with T47D; 12.5 µM (inactive) in the assay with UACC-257.

Take `COC(=O)c1c2c(cc3c1CC1(Cc4cc5c(cc4C1)CCC5)C3)CCC2`: the GI50 with A549, in the assay on CAKI-1, with HCT-116, in the assay on HL-60, with LOX IMVI and in the assay on MDA-N was > 100 µM (inactive) throughout. The GI50 in the assay with NCI-H460, with NCI/ADR-RES, in the assay on OVCAR-5, in the assay with PC-3, with SF-268 and in the assay on SF-539 was > 100 µM (inactive) in each case. The GI50 in the assay on SK-MEL-5, in the assay with SNB-19, in the assay with SNB-75, with T47D and in the assay with UACC-257 was > 100 µM (inactive) throughout.

For the molecule `COc1cc2c(c(OC)c1OC)-c1ccc(OC)c(=O)cc1C(NC(=O)CCCCCNc1ccc(N=[N+]=[N-])cc1[N+](=O)[O-])CC2` (stereo not drawn), the GI50 with A549 is < 0.01 µM (active); in the assay with CAKI-1 it was 0.299 µM (active); in the assay on HCT-116, < 0.01 µM (active); in the assay with HL-60, < 0.01 µM (active); in the assay with LOX IMVI, < 0.01 µM (active); in the assay with MDA-N, < 0.01 µM (active). Also, the GI50 in the assay on NCI-H226 was < 0.01 µM (active); with NCI-H460, < 0.01 µM (active); with NCI/ADR-RES, 0.422 µM (active); with OVCAR-5, < 0.01 µM (active); in the assay on PC-3, < 0.01 µM (active); in the assay with SF-268, < 0.01 µM (active). In addition, the GI50 is < 0.01 µM (active) in the assay with SF-539; < 0.01 µM (active) in the assay on SK-MEL-5; < 0.01 µM (active) in the assay with SNB-19; 0.246 µM (active) in the assay with SNB-75; 20.5 µM (inactive) in the assay with T47D.

Regarding `Cc1ccc(S(=O)(=O)N/N=c2/sc3ccccc3n2C)cc1`, the GI50 in the assay on A549, in the assay with CAKI-1, in the assay on HCT-116, in the assay with HL-60, with LOX IMVI and in the assay with NCI-H226 was > 100 µM (inactive) throughout. The GI50 in the assay with NCI-H460, in the assay with NCI/ADR-RES, in the assay on OVCAR-5, in the assay on PC-3, in the assay on SF-268 and in the assay with SF-539 was > 100 µM (inactive) throughout. The GI50 in the assay with SK-MEL-5, in the assay on SNB-19, in the assay on SNB-75, with T47D and with UACC-257 was > 100 µM (inactive) in each case.

`[N-]=[N+]=Nc1c(Cc2ccccc2)c(Cl)nc2ccccc12`: the GI50 was 36.3 µM (inactive) with A549; 21.4 µM (inactive) with CAKI-1; 17.5 µM (inactive) in the assay with HCT-116; 23.8 µM (inactive) in the assay on HL-60; 18.4 µM (inactive) with LOX IMVI; 21.9 µM (inactive) in the assay with MDA-N. Further, the GI50 in the assay with NCI-H226 is 16 µM (inactive); in the assay with NCI-H460, 35.4 µM (inactive); in the assay on NCI/ADR-RES it was 22.4 µM (inactive); with OVCAR-5 it was 31 µM (inactive); with PC-3, 25.6 µM (inactive); in the assay with SF-268 it was 33.6 µM (inactive). Moreover, the GI50 in the assay with SF-539 is 21.7 µM (inactive); in the assay on SK-MEL-5, 15.4 µM (inactive); in the assay on SNB-19, 19.1 µM (inactive); in the assay with SNB-75 it was 22.6 µM (inactive); with T47D, 32.6 µM (inactive); with UACC-257, 33.5 µM (inactive).

As for `CN[C@@H](C)[C@@H](O)c1ccccc1` [PSEUDOEPHEDRINE HYDROCHLORIDE], the GI50 in the assay with A549, with CAKI-1, in the assay on HCT-116, in the assay on HL-60, in the assay with LOX IMVI and with MDA-N was > 100 µM (inactive) in each case. In addition, the GI50 in the assay with NCI-H226, in the assay on NCI-H460, with NCI/ADR-RES, with OVCAR-5, with PC-3 and in the assay with SF-268 was > 100 µM (inactive) in each case. For the same molecule, the GI50 in the assay with SF-539, in the assay on SK-MEL-5, with SNB-19, in the assay with SNB-75, in the assay with T47D and in the assay with UACC-257 was > 100 µM (inactive) in each case.

With `O=C(O)C1C2C=CC(C2)C1c1ccccc1` (stereo not drawn), the GI50 in the assay on A549, in the assay on CAKI-1, with HCT-116, with HL-60, in the assay with LOX IMVI and in the assay with MDA-N was > 100 µM (inactive) each time. Besides, the GI50 in the assay with NCI-H226, with NCI-H460, with NCI/ADR-RES, in the assay with OVCAR-5, with PC-3 and in the assay with SF-268 was > 100 µM (inactive) in each case. Further, the GI50 in the assay with SF-539, in the assay on SK-MEL-5, with SNB-19, with SNB-75, in the assay with T47D and in the assay with UACC-257 was > 100 µM (inactive) in each case.

With `COC1(OC)N=C(N)C2(C#N)C(C)CC(=O)N(N(C)C)C12C#N` (stereo not drawn), the GI50 in the assay with A549, in the assay on CAKI-1, in the assay with HCT-116, in the assay on HL-60, in the assay on LOX IMVI and in the assay with NCI-H226 was > 100 µM (inactive) each time. The GI50 in the assay with NCI/ADR-RES, in the assay on OVCAR-5, in the assay with PC-3, with SF-268, with SF-539 and with SK-MEL-5 was > 100 µM (inactive) in each case. The GI50 in the assay on SNB-19 is > 100 µM (inactive); in the assay on SNB-75, 40.5 µM (inactive); in the assay on T47D, > 100 µM (inactive); in the assay on UACC-257, > 100 µM (inactive).

Values taken from ChEMBL document CHEMBL1201862, “PubChem BioAssay data set” (2004).
